Series [1] deals with A375 human melanoma xenografts. Nature of the series: Example 6 efficacy study in A375 human melanoma xenografts (tumor volume, T/C, TGI). To be noted: 10 mg/kg, p.o., BID × 21 days; for T/C / TGI / Tumor Size on PG-D21: PG-D21; for Tumor Size on PG-D21 / Tumor volume: Mean ± SEM. In kind it is in vivo, BALB/c nude mice. Here is the method: (§1) For efficacy study, compounds were tested in the A375 human melanoma xenografts. Known BRAF inhibitors encorafenib, and dabrafenib were used as positive controls. Encorafenib and dabrafenib were administered to BALB/c nude mice bearing A375 tumors on PG-D1 and dosed PO daily (QD) for 3 weeks. Encorafenib was dosed at 35 mg/kg. Dabrafenib was dosed at 100 mg/kg. Compound 83, Compound 93, Compound 70, and Compound 54 were administered to BALB/c nude mice bearing A375 tumors on PG-DO and dosed PO twice per day (BID) for 3 weeks. Compound 83, Compound 93, Compound 70, and Compound 54 were dosed at 10 mg/kg.
The A375 tumor cells were maintained in vitro in DMEM medium supplemented with […] and 1% Penicillin-Streptomycin at 37° C. in an atmosphere of 5% CO2 in air. The tumor cells were routinely subcultured twice weekly. The cells growing in an exponential growth phase were harvested and counted for tumor inoculation.
Each mouse was inoculated subcutaneously at the right flank with A375 tumor cells (5×10^6) in 0.2 mL of PBS with Matrigel (PBS: Matrigel=1:1) supplemented for tumor development. Animals were grouped for the treatment on day 16 after tumor inoculation when the average tumor volume reached 221 mm^3 for efficacy study and 386 mm^3 for PKPD study. The test articles administration and the animal numbers in each group are shown in the above experimental Tables.
Prior to the onset of drug treatment, mice were measured for tumor size in two dimensions using a caliper, and the tumor volume (mm^3) was calculated using formula V=0.5 a×b^2 where a and b are the long and short diameters of the tumor in mm, respectively. Mice were randomized into different treatment groups based on the tumor volume.
The major endpoint was to see if the tumor growth could be delayed or mice could be cured. The tumor size was then used for calculations of T/C value. The T/C value (in percent) is an indication of antitumor effectiveness; T and C are the mean volumes of the treated and control groups, respectively on specified day.
TGI was calculated for each group using the formula: TGI (%)=[1−(Ti−T0)/(Ci−C0)]×100; Ti is the average tumor volume of a treatment group on a given day, T0 is the average tumor volume of the treatment group on the day of treatment start, Ci is the average tumor volume of the vehicle control group on the same day with Ti, and C0 is the average tumor volume of the vehicle group on the day of treatment start.
Background: In xenograft studies the graft and the host belong to different species.

A short description of series [2]: Example 6 pharmacokinetics assay for efficacy study (plasma, liver). In kind it is in vivo, BALB/c nude mice. Particulars: mouse, po, 10 mg/kg, p.o., BID × 21 days. On the procedure: as §1
The plasma samples were collected at predetermined time points for PK analysis. The mice were euthanized at predetermined time points post the treatment. The blood samples were collected into the 1.5 mL Eppendorf tubes containing 15 μL of 0.5 M EDTA-K2. And then the anticoagulant blood samples were centrifuged at 2,500 g at 4° C. for 15 minutes. The plasma samples were separated into 2 aliquots. The 1st was used for PK analysis, and the 2nd served as backup. The samples were stored at −80° C. before bioanalysis.
Liver samples were collected at predetermined time points for PK analysis. The left lobe of the liver was dissected out and split into 2 parts. The 1st part was used for PK analysis and the 2nd part served as the backup for the study. The samples were transferred into pre-labeled tubes and quickly froze in liquid nitrogen within 2 minutes after dissection. The samples were stored at −80° C. before bioanalysis.
For efficacy study, the harvested plasma and liver were processed for pharmacokinetics analysis by LC/MS/MS with a concentration range of 2.00-2000 ng/mL for Encorafenib and Dabrafenib in plasma, 0.20-200 ng/mL for Encorafenib and Dabrafenib in liver, 50.0-50000 ng/mL for compound 83 and compound 70 in plasma, 20.0-20000 ng/mL for Compound 93 and Compound 54 in plasma, 5.00-5000 ng/mL for compound 93, compound 83, compound 70 and compound 54 in liver.

Where [3] appears, read: liver, read-out: Concentration in Liver (mean ± SEM).
[4] abbreviates: plasma, read-out: Concentration in Plasma (mean ± SEM).

SMILES strings stand for the structures. Like-named read-outs stand apart in the source and are kept apart here.

With `CCN(C)S(=O)(=O)Nc1ccc(F)c(Oc2ccc3ncn(C4CC5(CCN(C6CCC(c7cc8c(cc7F)c(N7CCC(=O)NC7=O)nn8C)CC6F)CC5)C4)c(=O)c3c2)c1C#N` (single isomer, unassigned) [Compound 83, 6-[2-cyano-3-[[ethyl(methyl)sulfamoyl]amino]-6-fluoro-phenoxy]-3-[7-[4-[3-(2,4-dioxohexahydropyrimidin-1-yl)-5-fluoro-1-methyl-indazol-6-yl]-2-fluoro-cyclohexyl]-7-azaspiro[3.5]nonan-2-yl]-4-oxo-quinazoline], in series [1], the T/C came to 0.7%. Also, the TGI in series [1] stood at 110.3%. In series [1], the “Tumor Size on PG-D21” value is given as 15 ± 1 mm^3. Further, the “Tumor volume” value in series [1] (day 0) turned out to be 221 ± 11 mm^3; in series [1] (day 4), 89 ± 11 mm^3; in series [1] (day 7), 62 ± 7 mm^3; in series [1] (day 11) it was 39 ± 3 mm^3; in series [1] (day 14), 31 ± 2 mm^3; in series [1] (day 18), 22 ± 1 mm^3. Moreover, the “Tumor volume” value in series [1] (day 21) worked out at 15 ± 1 mm^3. Further, the results for the concentration at 6 h in series [2] (setting [3]) and in series [2] (setting [4]) were 11000 ± 1050 ng/g and 17100 ± 1510 ng/mL, respectively.

In series [1], `Cn1nc(N2CCC(=O)NC2=O)c2cc(F)c(C3CCC(N4CCC5(CC4)CC(n4cnc6ccc(Oc7c(F)ccc(NS(=O)(=O)C8CCCC8)c7C#N)cc6c4=O)C5)CC3)cc21` (single isomer, unassigned) [Compound 93, N-[2-cyano-3-[3-[7-[4-[3-(2,4-dioxohexahydropyrimidin-1-yl)-5-fluoro-1-methyl-indazol-6-yl]cyclohexyl]-7-azaspiro[3.5]nonan-2-yl]-4-oxo-quinazolin-6-yl]oxy-4-fluoro-phenyl]cyclopentanesulfonamide] yielded a T/C of 3.3%. In addition, the TGI in series [1] is recorded as 107.4%. Besides, the “Tumor Size on PG-D21” value in series [1] was 73 ± 18 mm^3. Also, the “Tumor volume” value in series [1] (day 0) is 221 ± 9 mm^3; in series [1] (day 4), 133 ± 6 mm^3; in series [1] (day 7) it was 97 ± 6 mm^3; in series [1] (day 11), 69 ± 5 mm^3; in series [1] (day 14), 59 ± 5 mm^3; in series [1] (day 18), 52 ± 4 mm^3. The “Tumor volume” value in series [1] (day 21) came out at 73 ± 18 mm^3. The figures for the concentration at 6 h in series [2] (setting [3]) and in series [2] (setting [4]) were 652 ± 180 ng/g and 1100 ± 389 ng/mL, respectively.

For orientation: T/C means the result in the treated group divided by that in the control group, in per cent.

These data come from patent publication US20260297060A1, “COMPOUNDS FOR THE DEGRADATION OF MUTANT BRAF” (C4 THERAPEUTICS, INC., priority 2023, published 2026).
